Measured values: US20030109537A1, “Methods and materials for treating bone conditions” (priority 2001, published 2003)

Columns and labels:
[1] = system: PTH-induced marrow fibrosis and osteoclast resorption; test: Bone histomorphometry in rats given trapidil, continuous PTH or both; format: in vivo, rat; settings: continuous PTH, significant upon two-way ANOVA
[2] = system: rat model for parathyroid bone disease; test: Rat model for parathyroid bone disease: pulsatile vs continuous PTH, bone histomorphometry; format: in vivo; settings: rats
[3] = system: rat model for parathyroid bone disease; test: as above; format: in vivo
Experimental: Induction of parathyroid bone disease. Three month-old female Sprague-Dawley rats (Harlan Sprague-Dawley, Inc., Indianapolis, Ind.) were randomly divided into 3 groups, with 5 rats per group. In group 1 (pulsatile or intermittent PTH), each rat received 80 μg/kg/day human PTH (1-34) (hPTH) in vehicle (150 mM NaCl, 1 mM HCl and 2% heat-inactivated rat serum) by subcutaneous (s.c.) injection once daily for 7 days. In group 2 (vehicle), an osmotic pump (Alza Corp., Mountainview, Calif.) that delivered vehicle alone at a rate of 1 μl/hr for 7 days was implanted in each rat. In group 3 (continuous PTH), an osmotic pump that delivered 40 μg/kg/day hPTH at a rate of 1 μl/hr for 7 days was implanted in each rat. On day 8, all rats were anesthetized with ketamine (50 mg/kg): xylazine HCl (5 mg/kg) and sacrificed by decapitation. Both tibiae were removed from each rat. Right tibiae were fixed by immersion in 70% ethanol then processed for bone histology to verify the appearance of peritrabecular fibrosis. Left tibiae were frozen in liquid N2 and stored at −80° C. until processed for RNA isolation.
Bone histomorphometry. Proximal metaphyses were dehydrated in a graded series of ethanol, then infiltrated and embedded in methymethacrylate (Fisher Scientific, Fair Lawn, N.J.). After embedding, 5 μm sections were cut using a microtome (Reichert-Jung Model 2065, Heidelberg, Germany), and the sections were mounted unstained. Dynamic histomorphometric cancellous bone measurements were made in the unstained sections using fluorescent microscopy to detect the injected tetracycline and calcein markers. After obtaining the cancellous bone measurements, consecutive sections were stained with toluidine blue for bone cell and peritrabecular fibrosis measurements using light microscopy. A standard sampling site of 2.8 mm was located in the secondary spongiosa of the metaphysis at 1.5 mm distal to the growth plate.
All histomorphometric measurements were made with an Osteomeasure image analysis system (OsteoMetrics, Atlanta, Ga.) coupled to a photomicroscope and personal computer. All parameters were calculated according to standardized nomenclature. See, for example, Parfitt et al., J. Bone Miner. Res., 2:595-610 (1987). Bone volume was defined as the percentage of tissue volume consisting of cancellous bone. Tetracycline and calcein labels were determined as the percentage of bone perimeter labeled with fluorochrome. Mineral apposition rate (MAR) was defined as the average width between tetracycline and calcein label divided by interlabel time of 6 days. Bone formation rate (BFR) was defined as the product of MAR and the calcein label perimeter, and was expressed per bone surface (BFR/BS), bone volume (BFR/BV), or tissue volume (BFR/TV). Osteoblast surface was defined as a palisade of large basophilic cuboidal cells directly lying on top of the osteoid, and was expressed as a percent of bone perimeter. Osteoclast surface was defined as the bone perimeter lined by multinucleated cells regardless of the presence of erosion. Fibrotic perimeter was defined as the bone perimeter lined by multilayers of fibroblasts.
A rat model of hyperparathyroidism (HPT) was developed as described in Example 1, and compared to intermittent PTH treatment. PTH results in major changes in bone metabolism in less than 1 week and these short-term changes accurately predict the long-terms effects of the hormone. To induce an anabolic course of PTH action, human recombinant PTH was administered s.c. (80 μg/kg/d). […] In contrast, no increase in osteoclast number was noted.
To mimic HPT, hPTH was infused continuously at the same dose rate (80 μg/kg/d) using a s.c. implanted osmotic pump. […] In addition, bone formation in rats treated continuously or intermittently with PTH had similar increases in bone formation after 1 week. Cancellous osteopenia was not observed. […]

[4] = system: osteoblasts and peritrabecular fibroblasts; test: 3H-thymidine autoradiography; format: in vivo, rat; settings: continuous PTH 1 week with continuous 3H-thymidine infusion, rats
Experimental: ^3H-thymidine autoradiography was performed to determine the role of cell proliferation in contributing to the increases in osteoblasts and fibroblasts following continuous administration of PTH. ^3H-thymidine was infused continuously for the entire 1-week duration of PTH treatment in order to label all proliferating cells. […] Thus, it seems that PTH-induced osteoblasts and fibroblasts originate by different cellular pathways.

[5] = continuous PTH 40 μg/kg/day osmotic pump 7 days
[6] = continuous PTH 40 μg/kg/day osmotic pump 7 days, vs untreated control
[7] = continuous PTH infusion 40 μg/kg/d
[8] = pulsatile PTH 80 μg/kg/day s.c. once daily 7 days, rats
[9] = pulsatile PTH 80 μg/kg/day s.c. once daily 7 days, rats, vs untreated control

human PTH (1-34)
rate of mineral apposition [1]: slightly increased | time to increase in 3H-proline incorporation into bone matrix proteins ([2]; PTH s.c. 80 μg/kg/d): ≤ 24 h | time to increase in the number of fully mature osteoblasts ([2]; PTH s.c. 80 μg/kg/d): ≤ 3 days | time to upregulation of mRNA levels for bone matrix proteins (type I collagen, osteonectin, osteocalcin) ([2]; PTH s.c. 80 μg/kg/d): ≤ 16 h | Marrow fibrosis [2, 5]: Extensive^b | Osteoid surface [2, 5]: Extensive^b | Bone formation rate [2, 6]: ↑^a | Osteoblast perimeter [2, 6]: ↑^a | Osteoclast perimeter [2, 6]: ↑^b | mRNA levels for one matrix proteins [2, 6]: ↑^a | detrimental skeletal effects of continuous PTH [2, 7]: extensive peritrabecular fibrosis, osteomalacia, increased bone formation, and focal bone resorption | systemic side effects on reducing the dose rate [2, 7]: greatly reduced systemic side effects | systemic effects of continuous release ([2]; hPTH infused continuously 80 μg/kg/d, s.c. osmotic pump): severe hypercalcemia and weight loss | daily PTH pulse duration at which detrimental side effects were observed ([2]; programmed implantable osmotic pump, same quantity of PTH): ≥ 2 h | Bone formation rate ([2]; pulsatile PTH 80 μg/kg/day s.c. once daily 7 days, vs untreated control): ↑^a | effect on serum calcium levels ([2]; subcutaneous PTH 80 μg/kg/d): no effect | osteoclast number ([3]; PTH s.c. 80 μg/kg/d, rats): no increase | Cancellous osteopenia ([3]; PTH-treated rats, 1 week): not observed | PTH pulse duration having the same effect as continuous PTH ([3]; programmed implantable osmotic pump, same quantity of PTH, rats): 6 h | Marrow fibrosis [3, 8]: Not observed^a | Osteoid surface [3, 8]: Minimal^a | Osteoblast perimeter [3, 9]: ↑^a | mRNA levels for one matrix proteins [3, 9]: ↑^a | 3H-thymidine labeling of PTH-induced osteoblasts [4]: unlabeled | 3H-thymidine labeling of most of the peritrabecular fibroblasts induced by PTH [4]: labeled
